We go through 9 molecules from US11952362B2, “Compositions and methods for treating epigenetic disease” (The Regents of the University of California, priority 2018, dated 2024).

Where a name gives a salt, the structure may show the parent alone.

The test system of one data set is TNBS colitis. Nature of the data set: TNBS colitis in mice. It counts as in vivo. The following applies: i.c. administration, 50 mg/kg daily for 5 days, day 4, vs vehicle-treated mice. The procedure: Male C57BL/6J mice 8-10 weeks old were purchased from The Jackson Laboratory (Sacramento, CA, USA). Mice were housed 4 per cage, maintained on a 12:12 hour light-dark cycle and given access to food and water ad libitum. Following an acclimatization period of 3 to 5 days, trinitrobenzene sulfonic acid (TNBS, Millipore Sigma, St. Louis, MO, USA) colitis was induced by intracolonic (i.c.) injection of 0.05 ml TNBS solution (5 mg in 40% ethanol) via a polyethylene cannula (BD Intramedic PE-20 tubing, Thermo Fisher Scientific, Santa Clara, CA, USA) inserted 3.5 cm from the anal verge under isoflurane anesthesia (4% in O2 induction, 2.5-3% maintenance). Control mice received an injection of 40% ethanol (0.05 ml, i.c.). To test the effectiveness of the HDAC analogs, mice received a daily injection (0.1 ml, i.c.) of a selective HDAC class II inhibitor analog (50 mg/kg MJK001-013) or vehicle (5% dimethyl sulfoxide, Millipore Sigma) beginning one day prior to TNBS colitis induction (day −1) for a period of 5 days. Separate groups of mice received HDAC inhibitors or vehicle administered by daily oral gavage (50 mg/kg, 0.25 ml, p.o.). All analogs tested were first dissolved in dimethyl sulfoxide (DMSO) with rapid vortexing and subsequent dilution to 5% in sterile phosphate buffered saline (PBS; Gibco, Thermo Fisher Scientific). Vehicle contained 5% DMSO in sterile PBS. Prior to use, all solids were stored in amber (light-blocking) storage vials at 4° C. On the first day of administration, stock solutions were prepared, aliquoted and stored at −20° C. for daily use. Upon thawing, each aliquot was vortexed prior to intracolonic injection (via a polyethylene cannula) or oral gavage (20 ga×38 mm, Instech, Thermo Fisher Scientific). Following all in vivo experiments, animals were euthanized on day 4 by CO2 inhalation and cervical dislocation and the distal colons removed for further study.
Disease severity was assessed by weight loss and measurement of colon length and determination of clinical and histological damage scores on day 4 of the protocol. Briefly, clinical scores were calculated on a scale of 0-3 for degree of weight loss, bleeding, stool consistency and presence of rectal prolapse. Sections of colon (5 μm) fixed in 10% formalin, paraffin-embedded and stained with hematoxylin and eosin (H&E) were used for histological scoring using an AxioImager. Z1 microscope equipped with AxioVision software version 4.6 (Zeiss, Jena, Germany). Scoring was performed by two independent investigators blinded to the treatment conditions and resulting scores averaged. Scores were assigned based on the degree of crypt damage (0-4), polymorphonuclear neutrophil (PMN) infiltrate (0-3), erosion (0-3), and edema (0-3).
Statistical analyses were performed using GraphPad Prism (Version 5.0a; GraphPad Software, La Jolla, CA, USA). Differences were determined by unpaired t-test, 1-way analysis of variance, or a 2-way analysis of variance with Tukey's post-test. A p value <0.05 was considered to be statistically significant. Data presented are means±SEM for n animals.
Novel chemical HDAC inhibitors were developed aiming to target specific isoforms of the HDAC Class IIA members. Overall, as shown above, compounds have been synthesized, named MJK-001, -002, -003, -004, -005, -006, -007, -008, -009, -010, -011, -012 & -013. The effect of selective HDAC class IIA isoform inhibition during development of colitis in mice in vivo during TNBS administration was assessed. This mouse model is known to recapitulate many features of human Crohn's Disease. Mice received either an intracolonic (i.c.) injection or oral delivery (p.o.) of the MJK compounds once daily for a period of 5 days and health status, weight loss, and disease activity were monitored. Mice (male C57BL/6J, 8-10 wks old) are weighed and monitored daily. On the final day, blood, feces, and colonic samples for RNA, protein and histology are collected for downstream analysis. […]

Data set [1] is described as follows: Water solubility of MJK compounds. Type of data set: physicochemical. The source says: Solubility of MJK compounds: The development of an oral formulation for patients with auto-immune diseases, including Crohn's Disease, is preferential and less expensive, avoiding the need of hospitalization in comparison to the intracolonic (enema) administration. Thus, the water solubility and physical properties of the MJK compounds were examined. […] MJK-008 is the highest soluble MJK compound.

[2] abbreviates: listed as MJK-013, hydrochloride, 50 mg/kg.
The mark [3] stands for this setting: listed as MJK-005, hydrochloride, 50 mg/kg.

Turning to `Cl.Cn1c(/C=C/C(=O)NO)ccc1/C=C/C(=O)c1cnccn1` [MJK013, (E)-N-Hydroxy-3-(1-methyl-5-((E)-3-oxo-3-(pyrazin-2-yl)prop-1-en-1-yl)-1H-pyrrol-2-yl)acrylamide hydrochloride], the clinical score entry in the data set with TNBS colitis (hydrochloride, 50 mg/kg) is given as “ns”; in the data set on TNBS colitis (setting [2]), “no significant differences”. The colon length result is reported as “ns” in the data set on TNBS colitis (hydrochloride, 50 mg/kg) and “no significant differences” in the data set on TNBS colitis (setting [2]).
`Cn1c(/C=C/C(=O)NO)ccc1/C=C/C(=O)c1cccnc1` [MJK009, (E)-N-Hydroxy-3-(1-methyl-5-((E)-3-oxo-3-(pyridin-3-yl)prop-1-en-1-yl)-1H-pyrrol-2-yl)ac-rylamid p-toluenesulfonic acid salt]: the clinical score entry was “♦” in the data set with TNBS colitis (50 mg/kg) and “reduction in clinical scoring” with TNBS colitis (listed as MJK-009, 50 mg/kg). In addition, the colon length entry with TNBS colitis (50 mg/kg) is on record as “ns”; with TNBS colitis (listed as MJK-009, 50 mg/kg) it was “did not alter colon length”. Besides, the Solubility score entry in data set [1] was “highest solubility”.
With `Cn1c(/C=C/C(=O)NO)ccc1/C=C/C(=O)c1ccccn1` [MJK010, (E)-N-Hydroxy-3-(1-methyl-5-((E)-3-oxo-3-(pyridin-2-yl)prop-1-en-1-yl)-1H-pyrrol-2-yl)acrylamide], in the data set on TNBS colitis (50 mg/kg), the clinical score entry is listed as “ns” and the colon length entry is given as “ns”. Besides, in the data set with TNBS colitis (listed as MJK-010, 50 mg/kg), the clinical score entry was “no significant differences” and the colon length result is “no significant differences”.
For `Cn1c(/C=C/C(=O)NO)ccc1/C=C/C(=O)c1cccc(Cl)c1` [MJK003, (E)-3-(5-((E)-3-(3-chlorophenyl)-3-oxoprop-1-en-1-yl)-1-methyl-1H-pyrrol-2-yl)-N-hydrox-yacrylamide], in the data set on TNBS colitis (50 mg/kg), the clinical score entry is reported as “♦♦”; the colon length entry is recorded as “♦”; the histological score entry is “did not yield significant differences and ns”. In addition, in the data set on TNBS colitis (listed as MJK-003, 50 mg/kg), the clinical score entry was “statistical significance in the reduction of the clinical score” and the colon length result is on record as “increase of colon length”.
For the molecule `Cn1c(/C=C/C(=O)NO)ccc1/C=C/C(=O)c1ccncc1` [MJK011, (E)-N-hydroxy-3-(1-methyl-5-((E)-3-oxo-3-(pyridin-4-yl)prop-1-en-1-yl)-1H-pyrrol-2-yl)ac-rylamide], in the data set on TNBS colitis (50 mg/kg), the clinical score result is listed as “♦♦♦” and the colon length result is “ns”. In addition, in the data set with TNBS colitis (listed as MJK-011, 50 mg/kg), the clinical score result is on record as “reduction in clinical scoring” and the colon length entry is on record as “did not alter colon length”. In addition, the Solubility score result in data set [1] is “worst solubility”.
As to `Cn1c(/C=C/C(=O)NO)ccc1/C=C/C(=O)c1ccco1` [MJK012, (E)-3-(5-((E)-3-(Furan-2-yl)-3-oxoprop-1-en-1-yl)-1-methyl-1H-pyrrol-2-yl)-N-hydroxyacrylamide], in the data set on TNBS colitis (50 mg/kg), the clinical score result was “ns” and the colon length result is “ns”. Also, in the data set on TNBS colitis (listed as MJK-012, 50 mg/kg), the clinical score entry is listed as “no significant differences” and the colon length result is listed as “no significant differences”.
As for `Cn1cccc1C(=O)/C=C/c1ccc(/C=C/C(=O)NO)n1C` [MJK007, (E)-N-Hydroxy-3-(1-methyl-5-((E)-3-(1-methyl-1H-pyrrol-2-yl)-3-oxoprop-1-en-1-yl)-1H-pyrrol-2-yl)acrylamide], the clinical score entry in the data set with TNBS colitis (50 mg/kg) is listed as “ns”; with TNBS colitis (listed as MJK-007, 50 mg/kg), “no significant differences”. Moreover, the colon length entry in the data set with TNBS colitis (50 mg/kg) is reported as “ns”; with TNBS colitis (listed as MJK-007, 50 mg/kg) it was “no significant differences”.
As to `COc1cccc(C(=O)/C=C/c2ccc(/C=C/C(=O)NO)n2C)c1` [MJK002, (E)-N-hydroxy-3-(5-((E)-3-(3-methoxyphenyl)-3-oxoprop-1-en-1-yl)-1-methyl-1H-pyrrol-2-yl)acrylamide], in the data set with TNBS colitis (50 mg/kg), the clinical score result was “♦♦♦”; the colon length result is listed as “♦”; the histological score entry is “did not yield significant differences and ns”. Also, in the data set with TNBS colitis (listed as MJK-002, 50 mg/kg), the clinical score result is on record as “statistical significance in the reduction of the clinical score” and the colon length result is “increase of colon length”. Moreover, the Solubility score result in data set [1] is “more soluble than MJK-001 and MJK-003”.
With `Cl.Cn1c(/C=C/C(=O)NO)ccc1/C=C/C(=O)c1ccsc1` [MJK005, (E)-N-hydroxy-3-(1-methyl-5-((E)-3-oxo-3-(thiophen-3-yl)prop-1-en-1-yl)-1H-pyrrol-2-yl)acrylamide hydrochloride], in the data set on TNBS colitis (hydrochloride, 50 mg/kg), the clinical score result is on record as “♦♦♦” and the colon length result is “ns”. Also, in the data set with TNBS colitis (setting [3]), the clinical score entry is recorded as “reduction in clinical scoring” and the colon length entry is “did not alter colon length”.
